Converted amounts (≈) assume the structure as drawn.
Key:
[1] = test system: E. faecium OC3312; experiment: MIC, microdilution broth method (NCCLS); type: cell-based; details: E. faecium OC3312 (vancomycin-resistant enterococcus); 35° C., 16-20 hours; read-out: MIC (μg/mL) in Test Strains E. faecium OC3312
Experimental: (§1) Minimal inhibitory concentration (MIC) has been an indicator of in vitro antibacterial activity widely used in the art. The in vitro antimicrobial activity of the compounds was determined by the microdilution broth method following the test method from the National Committee for Laboratory Standards (NCCLS). This method is described in the NCCLS Document M7-A4, Vol. 17, No. 2, “Methods for Dilution Antimicrobial Susceptibility Test for Bacteria that Grow Aerobically—Fourth Edition”, which is incorporated herein by reference.
(§2) In this method two-fold serial dilutions of drug in cation adjusted Mueller-Hinton broth are added to wells in microdilution trays. The test organisms are prepared by adjusting the turbidity of actively growing broth cultures so that the final concentration of test organism after it is added to the wells is approximately 5×10^4 CFU/well.
(§3) Following inoculation of the microdilution trays, the trays are incubated at 35° C. for 16-20 hours and then read. […] The amount of growth in the wells containing the test compound is compared with the amount of growth in the growth-control wells (no test compound) used in each tray. As set forth in Table 1, some compounds of the present invention were tested against a variety of pathogenic bacteria resulting in a range of activities, from 1 to >128 μg/mL depending on the organism tested. S. aureus OC2878 is a MRSA and E. faecium OC3312 is a vancomycin-resistant enterococcus.

[2] = test system: S. aureus OC4172; experiment: MIC, microdilution broth method (NCCLS); type: cell-based; details: Staphylococcus aureus, 35° C., 16-20 hours, read-out: MIC (μg/mL) in Test Strains S. aureus OC4172
Experimental: as §1, §2, §3

[3] = test system: S. aureus OC2878; experiment: MIC, microdilution broth method (NCCLS); type: cell-based; details: Staphylococcus aureus; S. aureus OC2878 (MRSA); 35° C., 16-20 hours; read-out: MIC (μg/mL) in Test Strains S. aureus OC2878
Experimental: as §1, §2, §3

MIC [1] | MIC [2] | MIC [3] | melting point | SMILES
8 µg/mL (≈ 16.6 µM) | 8 µg/mL (≈ 16.6 µM) | 8 µg/mL (≈ 16.6 µM) |  | CC(=O)NC[C@H]1CN(c2ccc(N3CCc4nc(-c5csc(C)n5)ncc4C3)c(F)c2)C(=O)O1 [Compound 7, acetamide, N-[[(5S)-3-[4-[7,8-dihydro-2-(2-methyl-4-thiazolyl)pyrido[4,3-d]pyrimidin-6(5H)-yl]-3-fluorophenyl]-2-oxo-5-oxazolidinyl]methyl]-]
4 µg/mL (≈ 8.65 µM) | 2 µg/mL (≈ 4.32 µM) | 2 µg/mL (≈ 4.32 µM) |  | CC(=O)NC[C@H]1CN(c2ccc(N3CCc4nc(-c5ccncc5)ncc4C3)c(F)c2)C(=O)O1 [Compound 8, acetamide, N-[[(5S)-3-[4-[7,8-dihydro-2-(4-pyridinyl)pyrido[4,3-d]pyrimidin-6(5H)-yl]-3-fluorophenyl]-2-oxo-5-oxazolidinyl]methyl]-]
8 µg/mL (≈ 17.3 µM) | 4 µg/mL (≈ 8.63 µM) | 4 µg/mL (≈ 8.63 µM) |  | CC(=O)NC[C@H]1CN(c2ccc(N3CCc4nc(-c5cnccn5)ncc4C3)c(F)c2)C(=O)O1 [Compound 9, acetamide, N-[[(5S)-3-[4-(7,8-dihydro-2-pyrazinylpyrido[4,3-d]pyrimidin-6(5H)-yl)-3-fluorophenyl]-2-oxo-5-oxazolidinyl]methyl]-]
8 µg/mL (≈ 20 µM) | 4 µg/mL (≈ 10 µM) | 2 µg/mL (≈ 5.01 µM) |  | CC(=O)NC[C@H]1CN(c2ccc(N3CCc4nc(C)ncc4C3)c(F)c2)C(=O)O1 [Compound 6, acetamide, N-[[(5S)-3-[4-(7,8-dihydro-2-methylpyrido[4,3-d]pyrimidin-6(5H)-yl)-3-fluorophenyl]-2-oxo-5-oxazolidinyl]methyl]-]

Second part, the compound before the results:

SMILES | MIC [1] | MIC [2] | MIC [3] | melting point
CC(=O)NC[C@H]1CN(c2ccc(N3CCc4ncncc4C3)c(F)c2)C(=O)O1 [Compound 5, acetamide, N-[[(5S)-3-[4-(7,8-dihydropyrido[4,3-d]pyrimidin-6(5H)-yl)-3-fluorophenyl]-2-oxo-5-oxazolidinyl]methyl]-] | 8 µg/mL (≈ 20.8 µM) | 4 µg/mL (≈ 10.4 µM) | 2 µg/mL (≈ 5.19 µM) | 
CC(=O)NC[C@H]1CN(c2ccc(N3CCc4cnccc4C3=O)c(F)c2)C(=O)O1 [Compound 4, acetamide, N-[[(5S)-3-[4-(3,4-dihydro-1-oxo-2,6-naphthyridin-2(1H)-yl)-3-fluorophenyl]-2-oxo-5-oxazolidinyl]methyl]-] | 32 µg/mL (≈ 80.3 µM) | 32 µg/mL (≈ 80.3 µM) | 16 µg/mL (≈ 40.2 µM) | 
O=C1O[C@@H](CO)CN1c1ccc(N2CCc3ccccc3C2)c(F)c1 [Compound 1, 2-oxazolidinone, 3-[4-(3,4-dihydro-2(1H)-isoquinolinyl)-3-fluorophenyl]-5-(hydroxymethyl)-, (5R)-] | > 128 µg/mL | 128 µg/mL (≈ 374 µM) | 32 µg/mL (≈ 93.5 µM) | 
CC(=O)NC[C@H]1CN(c2ccc(N3CCc4c(cnn4C)C3)c(F)c2)C(=O)O1 [Compound 11, acetamide, N-[[(5S)-3-[4-(1,4,6,7-tetrahydro-1-methyl-5H-pyrazolo[4,3-c]pyridin-5-yl)-3-fluorophenyl]-2-oxo-5-oxazolidinyl]methyl]-] | 16 µg/mL (≈ 41.3 µM) | 16 µg/mL (≈ 41.3 µM) | 8 µg/mL (≈ 20.6 µM) | 
CC(=O)NC[C@H]1CN(c2ccc(N3CCc4ccncc4C3)c(F)c2)C(=O)O1 [Compound 3, acetamide, N-[[(5S)-3-[4-(3,4-dihydro-2,7-naphthyridin-2(1H)-yl)-3-fluorophenyl]-2-oxo-5-oxazolidinyl]methyl]-] | 8 µg/mL (≈ 20.8 µM) | 8 µg/mL (≈ 20.8 µM) | 4 µg/mL (≈ 10.4 µM) | 141 to 144 °C (dec.)
CC(=O)NC[C@H]1CN(c2ccc(N3CCc4[nH]ncc4C3)c(F)c2)C(=O)O1 [Compound 10, acetamide, N-[[(5S)-3-[4-(1,4,6,7-tetrahydro-5H-pyrazolo[4,3-c]pyridin-5-yl)-3-fluorophenyl]-2-oxo-5-oxazolidinyl]methyl]-] | 16 µg/mL (≈ 42.9 µM) | 8 µg/mL (≈ 21.4 µM) | 8 µg/mL (≈ 21.4 µM) | 
CC(=O)NC[C@H]1CN(c2ccc(N3CCc4ccccc4C3)c(F)c2)C(=O)O1 [Compound 2, acetamide, N-[[(5S)-3-[4-(3,4-dihydro-2(1H)-isoquinolinyl)-3-fluorophenyl]-2-oxo-5-oxazolidinyl]methyl]-] | 8 µg/mL (≈ 20.9 µM) | 8 µg/mL (≈ 20.9 µM) | 4 µg/mL (≈ 10.4 µM) | 131 to 134 °C
